Experimental data taken from ChEMBL document CHEMBL1201862, “PubChem BioAssay data set” (2004).
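Tested at 5 concentrations; 48 h exposure; 96-well plates; endpoints linearly interpolated, else capped at highest concentration. GI50 marks 50% less growth.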 Calls of active or inactive are those of the source. Rule as the data show it: active = GI50 up to about 1.1 µM and inactive = higher.

Legend:
Assay in all cases: inhibition of tumour cell growth, NCI panel, 48 h
HCT-15 = tested on: HCT-15
HL-60 = tested on: HL-60
HOP-92 = tested on: HOP-92
IGROV-1 = tested on: IGROV-1
M14 = tested on: M14
MDA-N = tested on: MDA-N
MOLT-4 = tested on: MOLT-4
NCI-H460 = tested on: NCI-H460
OVCAR-3 = tested on: OVCAR-3
OVCAR-4 = tested on: OVCAR-4
OVCAR-5 = tested on: OVCAR-5
RXF 393 = tested on: RXF 393
SK-MEL-28 = tested on: SK-MEL-28
SK-OV-3 = tested on: SK-OV-3
SN12C = tested on: SN12C
U-251 = tested on: U-251
Malme-3M = tested on: Malme-3M

With `COc1ccc(CCNC(=O)Cc2ccccc2CO)cc1OC` the GI50 (HCT-15) was > 100 µM, the GI50 (HL-60) was > 100 µM (inactive) and the GI50 (HOP-92) was > 100 µM (inactive). The GI50 (IGROV-1) was > 100 µM (inactive), the GI50 (M14) was > 100 µM (inactive) and the GI50 (MDA-N) was > 100 µM (inactive). For the same compound, the GI50 (MOLT-4) was > 100 µM (inactive), the GI50 (NCI-H460) was > 100 µM (inactive) and the GI50 (OVCAR-3) was > 100 µM (inactive). For the same compound, the GI50 (OVCAR-4) was > 100 µM (inactive), the GI50 (OVCAR-5) was > 100 µM (inactive) and the GI50 (RXF 393) was > 100 µM (inactive). For the same compound, the GI50 (SK-MEL-28) was > 100 µM (inactive), the GI50 (SK-OV-3) was > 100 µM (inactive) and the GI50 (SN12C) was > 100 µM (inactive). For the same compound, the GI50 (U-251) was > 100 µM (inactive).

`Cc1cccc(Cl)c1NC(=O)/C=C/c1ccccc1` was tested, and the GI50 (HCT-15) was > 100 µM, the GI50 (HL-60) was 84.1 µM (inactive) and the GI50 (HOP-92) was 29.6 µM (inactive). For the same compound, the GI50 (IGROV-1) was 97.5 µM (inactive), the GI50 (M14) was > 100 µM (inactive) and the GI50 (MDA-N) was > 100 µM (inactive). The GI50 (MOLT-4) was > 100 µM (inactive), the GI50 (Malme-3M) was > 100 µM (inactive) and the GI50 (NCI-H460) was 86.3 µM (inactive). For the same compound, the GI50 (OVCAR-3) was > 100 µM (inactive), the GI50 (OVCAR-4) was 26.9 µM (inactive) and the GI50 (OVCAR-5) was > 100 µM (inactive). For the same compound, the GI50 (SK-MEL-28) was > 100 µM (inactive), the GI50 (SK-OV-3) was 37.3 µM (inactive) and the GI50 (SN12C) was 80.5 µM (inactive). For the same compound, the GI50 (U-251) was 87.7 µM (inactive).

In the case of `Nc1ncnc2c1nc(O)n2-c1ccccc1`, the GI50 (HCT-15) is reported as > 100 µM, the GI50 (HL-60) is reported as > 100 µM (inactive) and the GI50 (HOP-92) is reported as 96.8 µM (inactive). For the same compound, the GI50 (IGROV-1) was > 100 µM (inactive), the GI50 (M14) was > 100 µM (inactive) and the GI50 (MDA-N) was > 100 µM (inactive). For the same compound, the GI50 (MOLT-4) was > 100 µM (inactive), the GI50 (Malme-3M) was > 100 µM (inactive) and the GI50 (NCI-H460) was > 100 µM (inactive). For the same compound, the GI50 (OVCAR-3) was > 100 µM (inactive), the GI50 (OVCAR-4) was > 100 µM (inactive) and the GI50 (OVCAR-5) was > 100 µM (inactive). For the same compound, the GI50 (SK-MEL-28) was > 100 µM (inactive), the GI50 (SK-OV-3) was > 100 µM (inactive) and the GI50 (SN12C) was > 100 µM (inactive).

For `O=c1c2ccccc2nc(N/N=C/c2ccccc2O)n1-c1ccccc1`, the GI50 (HCT-15) was 2.97 µM, the GI50 (HL-60) was 2.65 µM (inactive) and the GI50 (HOP-92) was 13 µM (inactive). The GI50 (IGROV-1) was 5.6 µM (inactive), the GI50 (M14) was 4.52 µM (inactive) and the GI50 (MDA-N) was 7.64 µM (inactive). The GI50 (Malme-3M) was 12.2 µM (inactive), the GI50 (NCI-H460) was 4.01 µM (inactive) and the GI50 (OVCAR-3) was 3.49 µM (inactive). The GI50 (OVCAR-4) was 5.18 µM (inactive), the GI50 (OVCAR-5) was 7.18 µM (inactive) and the GI50 (RXF 393) was 17.1 µM (inactive). The GI50 (SK-MEL-28) was 11.4 µM (inactive), the GI50 (SK-OV-3) was 13.8 µM (inactive) and the GI50 (SN12C) was 6.24 µM (inactive). The GI50 (U-251) was 5.2 µM (inactive).

In the case of `O=C(/C=C\c1ccccc1)Oc1ccc(/C=C2\CCC/C(=C\c3ccc(OC(=O)/C=C\c4ccccc4)cc3)C2=O)cc1`, the GI50 (HCT-15) is reported as > 100 µM, the GI50 (HL-60) is reported as > 100 µM (inactive) and the GI50 (HOP-92) is reported as > 100 µM (inactive). The GI50 (M14) was > 100 µM (inactive), the GI50 (MDA-N) was > 100 µM (inactive) and the GI50 (MOLT-4) was > 100 µM (inactive). The GI50 (NCI-H460) was > 100 µM (inactive), the GI50 (OVCAR-3) was > 100 µM (inactive) and the GI50 (OVCAR-4) was > 100 µM (inactive). For the same compound, the GI50 (OVCAR-5) was > 100 µM (inactive), the GI50 (SK-MEL-28) was > 100 µM (inactive) and the GI50 (SN12C) was > 100 µM (inactive). The GI50 (U-251) was > 100 µM (inactive).

In the case of `Cc1ccc(NC2=CC(=O)C(NO)c3ccccc32)cc1` (stereo not given), the GI50 (HCT-15) is reported as 2.79 µM, the GI50 (HL-60) is reported as 2 µM (inactive) and the GI50 (HOP-92) is reported as 2.7 µM (inactive). The GI50 (IGROV-1) was 1.53 µM (inactive), the GI50 (M14) was 2.94 µM (inactive) and the GI50 (MDA-N) was 2.61 µM (inactive). The GI50 (MOLT-4) was 2.74 µM (inactive), the GI50 (NCI-H460) was 3.22 µM (inactive) and the GI50 (OVCAR-3) was 0.61 µM (active). For the same compound, the GI50 (OVCAR-4) was 2.99 µM (inactive), the GI50 (OVCAR-5) was 8.59 µM (inactive) and the GI50 (RXF 393) was 2.62 µM (inactive). For the same compound, the GI50 (SK-MEL-28) was 8.13 µM (inactive), the GI50 (SK-OV-3) was 10.8 µM (inactive) and the GI50 (SN12C) was 3.36 µM (inactive). For the same compound, the GI50 (U-251) was 3.15 µM (inactive).

`Cc1ncc(-c2nnnn2-c2ccccc2)c(C(=O)O)n1` was tested, and the GI50 (HCT-15) was > 100 µM, the GI50 (HL-60) was > 100 µM (inactive) and the GI50 (HOP-92) was > 100 µM (inactive). The GI50 (IGROV-1) was > 100 µM (inactive), the GI50 (M14) was > 100 µM (inactive) and the GI50 (MDA-N) was > 100 µM (inactive). The GI50 (MOLT-4) was > 100 µM (inactive), the GI50 (Malme-3M) was > 100 µM (inactive) and the GI50 (NCI-H460) was > 100 µM (inactive). For the same compound, the GI50 (OVCAR-3) was > 100 µM (inactive), the GI50 (OVCAR-5) was > 100 µM (inactive) and the GI50 (RXF 393) was > 100 µM (inactive). For the same compound, the GI50 (SK-MEL-28) was > 100 µM (inactive), the GI50 (SK-OV-3) was > 100 µM (inactive) and the GI50 (SN12C) was > 100 µM (inactive). For the same compound, the GI50 (U-251) was > 100 µM (inactive).

`COc1ccc(OC)c(N(CN2C(=O)CCC2C(=O)O)C(C)=O)c1` (stereo not given) was tested, and the GI50 (HCT-15) was > 100 µM, the GI50 (HL-60) was > 100 µM (inactive) and the GI50 (HOP-92) was > 100 µM (inactive). The GI50 (IGROV-1) was > 100 µM (inactive), the GI50 (M14) was > 100 µM (inactive) and the GI50 (MDA-N) was > 100 µM (inactive). For the same compound, the GI50 (MOLT-4) was > 100 µM (inactive), the GI50 (Malme-3M) was > 100 µM (inactive) and the GI50 (NCI-H460) was > 10 µM (inactive). For the same compound, the GI50 (OVCAR-3) was > 100 µM (inactive), the GI50 (OVCAR-4) was > 100 µM (inactive) and the GI50 (OVCAR-5) was > 100 µM (inactive). The GI50 (SK-MEL-28) was > 100 µM (inactive), the GI50 (SK-OV-3) was > 100 µM (inactive) and the GI50 (SN12C) was > 100 µM (inactive). For the same compound, the GI50 (U-251) was > 100 µM (inactive).

For `C/C=N\n1c(C)n[nH]c1=O`, the GI50 (HCT-15) was > 100 µM, the GI50 (HL-60) was > 100 µM (inactive) and the GI50 (HOP-92) was > 100 µM (inactive). For the same compound, the GI50 (IGROV-1) was > 100 µM (inactive), the GI50 (M14) was > 100 µM (inactive) and the GI50 (MDA-N) was > 100 µM (inactive). The GI50 (MOLT-4) was > 100 µM (inactive), the GI50 (Malme-3M) was > 100 µM (inactive) and the GI50 (NCI-H460) was > 100 µM (inactive). For the same compound, the GI50 (OVCAR-3) was > 100 µM (inactive), the GI50 (OVCAR-4) was > 100 µM (inactive) and the GI50 (OVCAR-5) was > 100 µM (inactive). The GI50 (RXF 393) was > 100 µM (inactive), the GI50 (SK-MEL-28) was > 100 µM (inactive) and the GI50 (SN12C) was > 100 µM (inactive). For the same compound, the GI50 (U-251) was > 100 µM (inactive).
